# Reference: patent US8680290B2, “Isoxazoline derivatives and their use as herbicides” (Syngenta Limited, priority 2004, dated 2014)
# Columns and labels:
# [1] = system: Monocotyledonous and dicotyledonous test plants; experiment: Example B1 herbicidal action, application pre-emergence (Table B1b); type: in vivo; details: 250 g/ha, evaluated after 4 weeks
# How it was run: (§1)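 Compounds sprayed as aqueous solution from acetone/Emulsogen EL/NMP/dipropylene glycol monomethyl ether/X-77 formulation onto soil right after sowing (pre-emergence) or onto 8–9-day plants (post-emergence); greenhouse-grown. Damage scored 0 (none) to 10 (total) after 4 weeks pre- or 3 weeks post-emergence.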
# [2] = system: Monocotyledonous and dicotyledonous test plants; experiment: Example B2 herbicidal action, application pre-emergence, 96-cell seed trays (Table B2b); type: in vivo; details: 1000 g/ha
# Protocol: Monocotyledonous and dicotyledonous test plants were sown in sterilised standard soil in seed trays each having 96 cells. After one day (pre-emergence) or after 8 to 9 days cultivation (post-emergence) under controlled conditions in a climatic chamber (cultivation at 17/23° C.; 13 hours light; 50-60% humidity; after application at 19/24° C.), the plants were treated with an aqueous spray solution of 1000 mg/l of the active ingredient used (rate of application: […]; incl. 10% DMSO as solvent). The plants were grown on in the climatic chamber until the test was evaluated (10 total damage to plant, 0=no damage to plant) after 9 or 13 days.
# [3] = system: Monocotyledonous and dicotyledonous test plants; experiment: Example B1 herbicidal action, application post-emergence (Table B1a); type: in vivo; details: 250 g/ha, evaluated after 3 weeks, scale 0-10
# How it was run: as §1
Structure (SMILES),"herbicidal action (damage rating 0-10), Amaranthus [1]","herbicidal action (damage rating 0-10), Digitaria [1]","herbicidal action (damage rating 0-10), Panicum [1]","herbicidal action (damage rating 0-10), Setaria [1]","herbicidal action (damage rating 0-10), Sida [1]",melting point [°C],"herbicidal action (damage rating 0-10), Agrostis [2]","herbicidal action (damage rating 0-10), Digitaria [2]","herbicidal action (damage rating 0-10), Poa [2]","herbicidal action (damage rating 0-10), Setaria [2]","herbicidal damage rating, Abutilon [3]","herbicidal damage rating, Digitaria [3]","herbicidal damage rating, Panicum [3]","herbicidal damage rating, Setaria [3]","herbicidal damage rating, Sida [3]","herbicidal damage rating, Amaranthus [3]"
"CC1(C)CC(S(=O)(=O)C(F)(Cl)c2c(F)cccc2F)=NO1 (stereo not drawn) [Compound No. 1.21, 3-[chloro-(2,6-difluoro-phenyl)-fluoro-methanesulfonyl]-5,5-dimethyl-4,5-dihydroisoxazole]",10,10,10,10,9,129,10,10,10,9,7,7,9,7,5,
"CC1(C)CC(S(=O)(=O)C(Cl)(Cl)c2c(F)cccc2F)=NO1 [Compound No. 1.26, 3-[dichloro-(2,6-difluoro-phenyl)-methanesulfonyl]-5,5-dimethyl-4,5-dihydroisoxazole]",10,9,10,10,4,126,10,10,10,9,4,4,3,5,,
"Cc1cccc(C(Cl)S(=O)(=O)C2=NOC(C)(C)C2)c1 (stereo not drawn) [Compound No. 1.30, 3-[chloro-m-tolyl-methanesulfonyl]-5,5-dimethyl-4,5-dihydroisoxazole]",0,9,10,9,2,102,10,10,10,10,,,,,,
"CC1(C)CC(S(=O)(=O)C(Br)c2c(F)cccc2F)=NO1 (stereo not drawn) [Compound No. 1.19, 3-[bromo-(2,6-difluorophenyl)-methanesulfonyl]-5,5-dimethyl-4,5-dihydroisoxazole]",10,10,10,10,6,135,10,9,10,9,6,6,5,5,2,5
"CC1(C)CC(S(=O)(=O)C(I)c2c(F)cccc2F)=NO1 (stereo not drawn) [Compound No. 1.25, 3-[(2,6-difluoro-phenyl)-iodo-methanesulfonyl]-5,5-dimethyl-4,5-dihydroisoxazole]",10,10,10,10,3,156,10,9,10,8,5,4,3,3,4,
"COCC(c1c(F)cccc1F)S(=O)(=O)C1=NOC(C)(C)C1 (stereo not drawn) [Compound No. 1.51, 3-[1-(2,6-difluoro-phenyl)-2-methoxy-ethanesulfonyl]-5,5-dimethyl-4,5-dihydroisoxazole]",8,9,9,8,0,102,,,,,,,,,,
"CC1(C)CC(S(=O)(=O)C(C(N)=O)c2c(F)cccc2F)=NO1 (stereo not drawn) [Compound No. 1.23, 2-(2,6-difluoro-phenyl)-2-(5,5-dimethyl-4,5-dihydroisoxazole-3-sulfonyl)-acetamide]",7,4,10,7,0,175,10,8,10,8,,,,,,
"C=CC1CC1(c1c(F)cccc1F)S(=O)(=O)C1=NOC(C)(C)C1 (stereo not drawn) [Compound No. 1.46, 3-[1-(2,6-difluoro-phenyl)-2-vinylcylopropane-sulfonyl]-5,5-dimethyl-4,5-dihydroisoxazole]",3,6,5,3,0,117,,,,,,,,,,
"COc1cc(C(F)S(=O)(=O)C2=NOC(C)(C)C2)on1 (stereo not drawn) [Compound No. 5.03, 5-[(5,5-dimethyl-4,5-dihydroisoxazole-3-sulfonyl)-fluoromethyl]-3-methoxy-isoxazole]",10,,,9,2,99,,,,,,,,,,
"CC1(C)CC(S(=O)(=O)C(Cl)(Br)c2c(F)cccc2F)=NO1 (stereo not drawn) [Compound No. 1.53, 3-[bromo-chloro-(2,6-difluorophenyl)-methanesulfonyl]-5,5-dimethyl-4,5-dihydroisoxazole]",9,10,10,10,5,119,,,,,5,7,7,7,2,7
